Assay results from patent US20260242606A1, “PROCESS OF PREPARATION OF RESIDUE FREE SOLVENT BLUE 67 DYE” (RATHI DYE CHEM (P) LTD, priority 2023, published 2026).

Assay: Estimation of residue content in Solvent Blue 67 dye by filtration of the dye solution in organic solvent
Type: physicochemical
Experimental: For the preparation of Solvent Blue 67, chlorosulfonation is carried out in a vessel by reacting chlorosulfonic acid with 300 g of crude copper phthalocyanine blue (CPC) in presence of acid chloride followed by the process of drowning, filtration, homogenization, condensation, clarification, filtration, spin flash drying, airclassifying and sieving to retrieve the final product. The final product obtained is 560 g to 600 g of Solvent Blue 67 with purity 100%+5% coloristic value. Further, the estimation of residue content is determined by filtration process of prepared Solvent Blue 67 dye using organic solvent and the weight of residue is calculated.
An adequate quantity of Solvent Blue 67 of about 20 g to 60 g is dissolved in 50 ml to 150 ml of alkyl ester (or alkyl ketonic organic solvent) based on end process in a glass beaker. […]
The resultant dye solution is filtered through a filtration assembly. […] The residue left in the beaker is quantitatively transferred to the filter using 20 ml to 30 ml of alkyl ester (or alkyl ketonic organic solvent) and the filtrate is further washed with 15 to 25 ml of the same solvent to make it colour free. […] The weight of residue is calculated as weights of before and after filtration and expressed in PPM. […]

In the case of Solvent Blue 67, the residue content (Example 1, after clarification 225 (circulated in filter of 10 to 100 mesh up to 24 hrs), cake dried) is reported as “below 40 PPM” and the “presence of residue (FIGS. 2a and 2b)” value (dye dissolved in alkyl ester or alkyl ketonic organic solvent, filtered through 20 to 50 micron stainless-steel mesh) is reported as “does not show presence of any amount of residue”.
